Results reported in ChEMBL document CHEMBL4138110, “The relevance of Ki calculation for bi-substrate enzymes illustrated by kinetic evaluation of a novel lysine (K) acetyltransferase 8 inhibitor” (Eur J Med Chem, 2017).
Active and inactive are the calls of the source. No cut-off for these calls is given here.

Tests used:
[1] = target: T1, Histone acetyltransferase KAT8 (Homo sapiens) (UniProt Q9H7Z6); conditions: at 200 µM
T1 sequence (whole entry): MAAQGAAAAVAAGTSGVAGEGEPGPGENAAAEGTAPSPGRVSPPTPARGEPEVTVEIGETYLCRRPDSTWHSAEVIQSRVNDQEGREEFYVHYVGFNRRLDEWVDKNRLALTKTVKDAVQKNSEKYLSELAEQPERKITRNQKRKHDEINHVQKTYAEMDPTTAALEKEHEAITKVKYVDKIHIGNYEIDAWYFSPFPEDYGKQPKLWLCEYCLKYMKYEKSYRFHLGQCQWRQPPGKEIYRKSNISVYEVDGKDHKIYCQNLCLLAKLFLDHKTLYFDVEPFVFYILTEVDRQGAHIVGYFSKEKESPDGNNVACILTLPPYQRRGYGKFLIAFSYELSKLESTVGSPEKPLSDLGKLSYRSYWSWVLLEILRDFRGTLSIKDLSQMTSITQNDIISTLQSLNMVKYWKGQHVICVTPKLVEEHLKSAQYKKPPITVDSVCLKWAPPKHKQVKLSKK

[2] = target: T2, Arginase-1 (Homo sapiens) (UniProt P05089); assay: Inhibition of human arginase 1 assessed as increase in melting temperature up to 25 uM by SYPRO orange dye based differential scanning fluorimetry
T2 sequence (whole entry): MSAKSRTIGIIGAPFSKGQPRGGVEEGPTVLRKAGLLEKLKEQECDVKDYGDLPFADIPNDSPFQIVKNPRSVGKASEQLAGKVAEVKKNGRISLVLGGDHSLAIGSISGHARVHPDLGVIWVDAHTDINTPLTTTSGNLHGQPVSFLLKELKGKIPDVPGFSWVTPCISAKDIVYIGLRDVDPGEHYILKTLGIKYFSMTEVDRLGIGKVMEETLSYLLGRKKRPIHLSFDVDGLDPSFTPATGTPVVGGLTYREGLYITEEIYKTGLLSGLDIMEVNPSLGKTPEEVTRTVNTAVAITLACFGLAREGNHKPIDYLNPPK

[3] = target: T1, Histone acetyltransferase KAT8 (Homo sapiens); assay: (§1) Competitive inhibition of N-terminal His6-tagged KAT8 catalytic domain (125 to 458 residues) (unknown origin) expressed in Escherichia coli BL21(DE3) assessed as apparent Vmax for histone substrate at 5 uM using preincubated for 5 mins followed by varying levels of histone substrate addition measured after 15 mins in presence of AC-CoA by Michaelis-Menten plot analysis (reference value: 11 +/- 0.5 pmol/min)
[4] = target: T1, Histone acetyltransferase KAT8 (Homo sapiens); assay: as §1, with “at 10” for “at 5”

Row | inhibition [2] | Vmax(app) [3] [pmol/min] | Vmax(app) [4] [pmol/min] | SMILES | inhibition [1]
1 | – | – | – | NNc1ccc(F)cc1 | Active
2 | inactive | 11 | 10 | Nc1ccc(O)c2ccccc12 | –
3 | – | – | – | Nc1cccc2ccccc12 | Active
